In patent US20240217990A1 (Gilead Sciences, Inc., priority 2021, published 2024) one finds EC50 data, which are given here for 30 compounds.

Usually EC50 stands for the concentration giving half of the maximal effect.

Structures are written as SMILES.

One experiment addresses T1, TLR7 (Homo sapiens, UniProt Q9NYK1).
T1 construct: Human peripheral blood mononuclear cells (PBMCs) consist of lymphocytes, monocytes and dendritic cells that express TLR7, TLR8 and TLR9; endogenous in cells; host or cells: cryopreserved human PBMCs from healthy donors
T1 sequence (Q9NYK1 27-1049): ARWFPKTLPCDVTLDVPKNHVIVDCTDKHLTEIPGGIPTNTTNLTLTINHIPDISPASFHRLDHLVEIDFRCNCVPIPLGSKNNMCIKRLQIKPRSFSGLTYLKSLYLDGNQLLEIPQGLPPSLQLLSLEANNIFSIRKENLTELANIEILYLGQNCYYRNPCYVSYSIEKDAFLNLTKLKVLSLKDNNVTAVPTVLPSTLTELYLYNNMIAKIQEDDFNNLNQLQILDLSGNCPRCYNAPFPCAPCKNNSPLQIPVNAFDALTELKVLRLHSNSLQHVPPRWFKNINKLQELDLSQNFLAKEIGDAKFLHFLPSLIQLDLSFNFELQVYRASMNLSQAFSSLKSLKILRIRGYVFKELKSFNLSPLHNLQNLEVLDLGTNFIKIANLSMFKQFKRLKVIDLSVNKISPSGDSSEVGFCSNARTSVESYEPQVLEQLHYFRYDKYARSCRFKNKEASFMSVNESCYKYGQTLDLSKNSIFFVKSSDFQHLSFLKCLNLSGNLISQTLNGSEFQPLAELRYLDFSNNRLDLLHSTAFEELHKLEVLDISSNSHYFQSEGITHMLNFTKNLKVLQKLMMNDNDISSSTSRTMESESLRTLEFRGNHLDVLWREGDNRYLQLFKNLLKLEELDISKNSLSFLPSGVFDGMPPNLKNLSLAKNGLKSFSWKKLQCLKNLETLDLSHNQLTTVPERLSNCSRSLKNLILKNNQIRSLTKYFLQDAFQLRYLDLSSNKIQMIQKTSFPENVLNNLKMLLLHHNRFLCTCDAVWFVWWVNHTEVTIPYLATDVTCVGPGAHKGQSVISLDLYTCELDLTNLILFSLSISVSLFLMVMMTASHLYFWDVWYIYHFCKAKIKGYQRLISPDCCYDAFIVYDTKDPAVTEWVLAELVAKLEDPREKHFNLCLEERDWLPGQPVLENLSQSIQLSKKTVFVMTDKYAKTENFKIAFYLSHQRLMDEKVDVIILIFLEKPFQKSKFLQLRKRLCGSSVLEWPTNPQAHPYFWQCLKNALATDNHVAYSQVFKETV
The experiment in a line: TLR7 human PBMC cell-based assay (antagonist, GS-986 stimulated cytokine release). To be noted: human PBMCs; TLR7 agonist GS-986 400 nM, 6 hours; cytokines (IL-6 and IFNα) in supernatant; read-out: TLR-7 EC50. In short, it runs like this: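 EC50 derived by sigmoidal fitting of IL-6 and IFNα levels, quantified by electrochemiluminescence in supernatants of human PBMCs given 400 nM GS-986 for 6 h. Cells (100,000/well in RPMI-1640, 10% FBS) had received test antagonist 1 h beforehand, 10 doses in quadruplicate, at 37 °C.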

A further experiment addresses T2, TLR8 (Homo sapiens, UniProt Q9NR97).
T2 construct: Human peripheral blood mononuclear cells (PBMCs) consist of lymphocytes, monocytes and dendritic cells that express TLR7, TLR8 and TLR9; endogenous in cells; host or cells: cryopreserved human PBMCs from healthy donors
T2 sequence (Q9NR97 27-1041): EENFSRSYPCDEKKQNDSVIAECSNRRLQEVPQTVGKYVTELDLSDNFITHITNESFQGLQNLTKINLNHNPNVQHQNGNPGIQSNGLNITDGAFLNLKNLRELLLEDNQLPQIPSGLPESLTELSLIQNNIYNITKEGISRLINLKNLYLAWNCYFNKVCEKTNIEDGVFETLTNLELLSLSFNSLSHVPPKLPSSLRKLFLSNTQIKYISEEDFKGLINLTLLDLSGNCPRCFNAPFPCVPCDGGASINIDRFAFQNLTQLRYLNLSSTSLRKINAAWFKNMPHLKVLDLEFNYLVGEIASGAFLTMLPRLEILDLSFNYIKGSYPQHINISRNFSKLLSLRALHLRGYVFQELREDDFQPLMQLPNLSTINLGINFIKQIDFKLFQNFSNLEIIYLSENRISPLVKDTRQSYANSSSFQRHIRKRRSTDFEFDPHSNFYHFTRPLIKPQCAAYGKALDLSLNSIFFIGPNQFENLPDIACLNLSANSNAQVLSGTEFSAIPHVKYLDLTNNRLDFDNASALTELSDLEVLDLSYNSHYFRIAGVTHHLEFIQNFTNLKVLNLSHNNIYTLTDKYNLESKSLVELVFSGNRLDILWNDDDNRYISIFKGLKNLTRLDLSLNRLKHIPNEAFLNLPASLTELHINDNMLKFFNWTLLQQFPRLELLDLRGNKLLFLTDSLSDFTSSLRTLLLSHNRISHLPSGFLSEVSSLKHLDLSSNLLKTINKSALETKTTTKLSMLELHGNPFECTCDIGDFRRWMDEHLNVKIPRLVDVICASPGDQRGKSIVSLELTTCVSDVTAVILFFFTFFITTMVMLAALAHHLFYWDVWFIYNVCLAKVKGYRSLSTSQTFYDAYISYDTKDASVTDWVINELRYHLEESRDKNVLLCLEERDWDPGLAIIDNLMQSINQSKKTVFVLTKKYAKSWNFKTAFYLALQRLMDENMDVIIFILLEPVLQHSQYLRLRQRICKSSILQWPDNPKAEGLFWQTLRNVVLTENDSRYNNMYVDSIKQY
Description: TLR8 human PBMC cell-based assay (antagonist, Compound A stimulated cytokine release). Conditions: human PBMCs; TLR8 agonist Compound A 800 nM, 6 hours; cytokines (TNFa and IL 12p40) in supernatant; read-out: TLR-8 EC50. In short, it runs like this:
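Cryopreserved donor PBMCs (100,000/well, RPMI + 10% FBS) were preincubated 1 h with antagonist (10-point dose response, quadruplicate), then stimulated with Compound A (800 nM final) for 6 h at 37 °C. TNFa and IL-12p40 in supernatants were measured by electrochemiluminescence; sigmoidal fits gave EC50.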

As to `Cc1cc(-c2[nH]c3cc(C4CCN(CC5(C)COC5)CC4)sc3c2C(C)C)cn2ncnc12` [Example 186, 6-isopropyl-5-(8-methyl-[1,2,4]triazolo[1,5-a]pyridin-6-yl)-2-(1-((3-methyloxetan-3-yl)methyl)piperidin-4-yl)-4H-thieno[3,2-b]pyrrole], the EC50 amounted to 2.1 nM on TLR7 and 3.1 nM on TLR8.

Regarding `Cc1cc(-c2[nH]c3cc(C4CCN(C(=O)[C@H]5COCCN5)CC4)sc3c2C(C)C)cn2ncnc12` [Example 292], the values for the EC50 on TLR7 and on TLR8 were 0.3 nM and 7.93 nM, respectively.

On to `Cc1cc(-c2[nH]c3cc(C(=O)N4C[C@@H](N)CC[C@H]4C)sc3c2C(C)C)cn2ncnc12` [Example 96], for which the EC50 on TLR7 was 0.3 nM; at TLR8, 25.8 nM.

For `Cc1cc(-c2[nH]c3cc(C(=O)N(CCN(C)C)C4CCCC4)sc3c2C(C)C)cn2ncnc12` [Example 98], the EC50 on TLR7 was 14.3 nM; on TLR8 it was 17.5 nM.

As to `Cc1cc(-c2[nH]c3cc(C(=O)N(C)C4CCN(CC#N)CC4)sc3c2C(C)C)cn2ncnc12` [Example 182], the results for the 50% effective concentration (EC50) at TLR7 and on TLR8 were 8.8 nM and 40.2 nM, respectively.

Turning to `Cc1cc(-c2[nH]c3cc(C(=O)N4CCCC5CNCC54)sc3c2C(C)C)cn2ncnc12` (stereo not drawn) [Example 109], the figures for the EC50 on TLR7 and at TLR8 were 1.4 nM and 18.2 nM, respectively.

As to `Cc1cc(-c2[nH]c3cc(-c4cccc5c4CCNC5)sc3c2C(C)C)cn2ncnc12` [Example 225], the values for the EC50 at TLR7 and on TLR8 were 37.8 nM and 5.3 nM, respectively.

Regarding `Cc1cc(-c2[nH]c3cc(C4CCN(C(=O)C5CN6CCC5CC6)CC4)sc3c2C(C)C)cn2ncnc12` (stereo not drawn) [Example 204], the concentration giving a half-maximal response (EC50) at TLR7 worked out at 0.5 nM; at TLR8, 9.9 nM.

Take `Cc1cc(-c2[nH]c3cc(C(=O)N(C)CCN4CCOCC4)sc3c2C(C)C)cn2ncnc12` [Example 95]: the EC50 at TLR7 was found to be 45.2 nM; on TLR8, 35 nM.

Turning to `Cc1cc(-c2[nH]c3cc(C(=O)N4CCC(O)CC4)sc3c2C(C)C)cn2ncnc12` [Example 44], the concentration giving a half-maximal response (EC50) is 46.1 nM at TLR7 and 41.2 nM at TLR8.

For `Cc1cc(-c2[nH]c3cc(C(=O)N4C[C@H](C)NC[C@H]4C)sc3c2C(C)C)cn2ncnc12` [Example 124], the EC50 on TLR7 worked out at 0.5 nM; at TLR8 it was 1.7 nM.

Regarding `Cc1cc(-c2[nH]c3cc(-c4nc5ccncc5[nH]4)sc3c2C(C)C)cn2ncnc12` [Example 236], the EC50 at TLR7 was 18.6 nM; on TLR8, 14.2 nM.

As to `Cc1c(-c2[nH]c3cc(C(=O)N(C)C4CCN(CCO)CC4)sc3c2C(C)C)cn2ncnc2c1C` [Example 192], the EC50 came out at 1.2 nM at TLR7 and 0.5 nM at TLR8.

Turning to `Cc1cc(-c2[nH]c3cc(C4CCC5CNCC5C4)sc3c2C(C)C)cn2ncnc12` (stereo not drawn) [Example 157], the concentration giving a half-maximal response (EC50) came out at 0.3 nM on TLR7 and 31.7 nM at TLR8.

Turning to `Cc1cc(-c2[nH]c3cc(C(=O)N4CCC[C@H]4CN4CCCC4)sc3c2C(C)C)cn2ncnc12` [Example 97], the EC50 at TLR7 was determined as 12.9 nM; on TLR8 it was 32.6 nM.

Regarding `Cc1cc(-c2[nH]c3cc(C(=O)N4CCC[C@@H](N)C4)sc3c2C(C)C)cc(C)n1` [Example 12], the EC50 was determined as 42.2 nM on TLR7 and 66.6 nM at TLR8.

In the case of `COc1cc(-c2[nH]c3cc(C(=O)N4CCNCC4)sc3c2C(C)C)cn2ncnc12` [Example 64, (6-isopropyl-5-(8-methoxy-[1,2,4]triazolo[1,5-a]pyridin-6-yl)-4H-thieno[3,2-b]pyrrol-2-yl)(piperazin-1-yl)methanone], the EC50 turned out to be 0.9 nM at TLR7 and 3.3 nM at TLR8.

For `Cc1c(-c2[nH]c3cc(-c4ccc(N5CCNCC5)nc4)sc3c2C(C)C)cn2ncnc2c1C` [Example 228], the EC50 came to 0.4 nM at TLR7 and 0.5 nM on TLR8.

`Cc1cc(-c2[nH]c3cc(-c4ccc(N5CCN(C)CC5)c(F)c4)sc3c2C(C)C)cn2ncnc12` [Example 272, 2-(3-Fluoro-4-(4-methylpiperazin-1-yl)phenyl)-6-isopropyl-5-(8-methyl-[1,2,4]triazolo[1,5-a]pyridin-6-yl)-4F1-thieno[3,2-b]pyrrole]: the values for the EC50 at TLR7 and on TLR8 were 1.8 nM and 4.9 nM, respectively.

With `Cc1cc(-c2[nH]c3cc(CN4CC5(C4)CS(=O)(=O)C5)sc3c2C(C)C)cn2ncnc12` [Example 271], the concentration giving a half-maximal response (EC50) at TLR7 worked out at 35 nM; at TLR8, 51.2 nM.

Consider `Cc1cc(-c2[nH]c3cc(C(=O)N4CC[C@@H](N)C4)sc3c2C(C)C)cc(C)n1` [Example 8], for which the concentration for a half-maximal effect (EC50) was found to be 67.7 nM at TLR7 and 27.2 nM at TLR8.

As to `Cc1cc(-c2[nH]c3cc(C(=O)N4CC[C@H](C)[C@H](N)C4)sc3c2C(C)C)cn2ncnc12` [Example 105], the EC50 was found to be 4.6 nM on TLR7 and 16.3 nM at TLR8.

With `Cc1cc(-c2[nH]c3cc(C(=O)N(C)[C@H]4CCCNC4)sc3c2C(C)C)cc(C)n1` [Example 29], the values for the half-maximal effective concentration (EC50) at TLR7 and on TLR8 were 60 nM and 92 nM, respectively.

Consider `Cc1cc(-c2[nH]c3cc(-c4ccc5c(c4)CCNC5)sc3c2C(C)C)cn2ncnc12` [Example 223], for which the concentration for a half-maximal effect (EC50) at TLR7 is 0.4 nM; on TLR8, 0.5 nM.

With `Cc1cc(-c2[nH]c3cc(-c4cnc5c(c4)CNCC5)sc3c2C(C)C)cn2ncnc12` [Example 213], the 50% effective concentration (EC50) on TLR7 was found to be 0.8 nM; on TLR8 it was 0.2 nM.

Regarding `Cc1c(-c2[nH]c3cc(C4CCN(CC(N)=O)CC4)sc3c2C(C)C)ccc2nn(C)c(=O)n12` [Example 286], the EC50 is over 1000 nM on TLR7 and 172 nM at TLR8.

Regarding `CC(C)c1c(-c2ccc3ncnn3c2)[nH]c2cc(C(=O)N3CCNCC3)sc12` [Example 66], the EC50 is 25.7 nM at TLR7 and 16.1 nM at TLR8.

Regarding `Cc1cc(-c2[nH]c3cc(C4CCN(CC(N)=O)CC4(C)C)sc3c2C(C)C)cn2ncnc12` (stereo not drawn) [Example 298], the concentration for a half-maximal effect (EC50) at TLR7 was determined as 4.02 nM; on TLR8, 17.7 nM.

For `Cc1cc(-c2[nH]c3cc(C(=O)N(C)[C@H]4CCNC[C@@H]4F)sc3c2C(C)C)cn2ncnc12` [Example 78], the EC50 was 0.4 nM on TLR7 and 8.6 nM at TLR8.

With `Cc1cc(-c2[nH]c3cc(C(=O)N4C[C@@H](C)N[C@H](C)C4)sc3c2C(C)C)cn2ncnc12` [Example 127], the EC50 at TLR7 came out at 1.5 nM; at TLR8, 0.5 nM.
